The text below walks through data of patent publication US20080058211A1, “Method and Composition for the Modulation of Toxin Resistance in Plant Cells” (BOARD OF REGENTS, THE UNIVERSITY OF TEXAS SYSTEM, priority 2006, published 2008).

The subject of one assay is [Ca^2+]cyt. As to conditions: dextran-conjugated calcium green as reporter; cited from earlier work.
The next assay has as its system roots. As to conditions: in vivo; cited from earlier work.
For assay [1], the system named is root hairs of Arabidopsis thaliana. As to conditions: cited from earlier work; for induction of membrane depolarization: applied nucleotide or phosphate.
Assay [2] has as its system ATMEKK1, ATMPK3, ATPK19, ERF2, ERF3, ERF4 and ACS6 genes. As to conditions: cited from earlier work.
Another assay deals with Δ[Ca^2+]cyt. As to conditions: co-application with OGA; cited from earlier work.
A further assay relates to Arabidopsis pollen. The assay can be described thus: in vitro pollen germination (Arabidopsis). The assay is classed as cell-based, Arabidopsis thaliana. On the procedure: Effects of Extracellular ATPγS and AMPαS on Pollen Germination. Arabidopsis pollen was germinated in pollen germination media (PGM) containing from about zero to about 400 μM ATPγS or AMPαS. […] The method of collection included vortexing flowers in PGM creating a homogenous suspension of pollen from tens to hundreds of flowers. This method caused the release of a small amount of ATP, 2-5 μM into the PGM (data not shown).
The nitric oxide signaling pathway mediates the inhibition of Arabidopsis pollen germination by ATPγS. To examine the downstream effectors involved in the inhibition of Arabidopsis pollen germination by ATPγS, different agonists and antagonists of the known nitric oxide signaling pathway were examined. […] Some of the nitric oxide signaling pathway agonists are water soluble while others are DMSO soluble.
Strains and Growth Conditions. For the experiments related to the nitric oxide-ATP signaling relationship, all Arabidopsis thaliana plants were ecotype Wassilewskija (WS), and Medicago truncatula plants were strain A17. All of the plants were grown in Metro-Mix 200 soil at 24° C. with constant light. In vitro Pollen Germination. Arabidopsis flowers in stage 12-14 (Smyth et al., 1990) or Medicago truncatula flowers in stage F3 (Firnhaber et al., 2005) were collected and vortexed for 1 min in pollen germination media (PGM) (0.01% boric acid, 1 mM MgSO4, 1 mM CaCl2, 1 mM Ca(NO3)2, 5 mM HEPES, 18% Sucrose pH 7.0). The supernatant containing the pollen was collected by pipet, and up to three rounds of vortexing of the same pollen could be pooled together. The pollen suspended in PGM was then added in 10-12 μL drops to 400 μL PGM+1% agar that had been spread as a thin film across a microscope slide. The slides and pollen were then placed into humidity chambers, petri dishes with water saturated kimwipes, and allowed to germinate at 26° C. overnight. Pictures of the germinated pollen were taken with a digital camera attached to a brightfield microscope at 40×. The digital images were scored for the percent of pollen germinated using the AlphaEase software from Alpha Innotech. Pollen with tubes that were shorter than the diameter of the pollen grain were not counted as germinated or non-germinated. The chemicals: ATPγS, AMPαS, N2, 2-O-dibutyrylguanosine 3′:5′-cyclic monophospohate (Dib cGMP), Sildenafil citrate (Viagra™, Pfizer), and 2-(N,N-Diethylamino)-diazenolate 2-oxide (NONOate) were added to the pollen/PGM suspension prior to adding the drops to the PGM+1% agar. The chemicals 1H-[1,2,4]Oxadiazolo[4,3,-a]quinoxalin-1-one (ODQ), N-[4-[1-(3-Aminopropyl)-2-hydroxy-2-nitrosohydrazino]butyl]-1,3-propanediamine (SNAP), and 3-isobutyl-1-methylxanthine (IBMX) were diluted in DMSO and added to the pollen/PGM suspension to a final concentration of DMSO of 0.1%.
For successful pollen germination it was critical for the plants to be healthy and growing in slightly dry soil. To achieve this, the plants were briefly watered 1-2 days before the experiment. As Johnson-Brousseau and McCormick note in their paper (Johnson-Brousseau and McCormick 2004), a solid base is necessary for best in vitro germination of Arabidopsis pollen. The pollen would not germinate in liquid PGM if not overlaid on a solid PGM+1% agar base, and the vortexing and deposition of the pollen/PGM suspension needed to take place in less than 30 minutes or germination rates dropped considerably.

The test system of assay [3] is [Ca^2+]cyt in excised roots. The settings on record: cited from earlier work; for effect on [Ca2+]cyt: 10 mM CaCl2; for suppression of the response of roots to eATP: antagonist or channel blocker with eATP.
In the next assay the test system is Arabidopsis leaves. The settings on record: cited from earlier work.
The next assay concerns Arabidopsis pollen tubes. The assay can be described thus: pollen tube elongation. The assay is classed as cell-based, Arabidopsis thaliana. As to conditions: 0.5% DMSO. On the procedure:
Arabidopsis pollen tube elongation is inhibited by ATPγS. As vesicles fuse to deliver membranes to the tip of elongating pollen tubes, ATP is likely to be released. So ATPγS and AMPαS were investigated for their ability to affect pollen tube elongation. After pollen tubes had begun to grow, from about 0 to about 250 μM ATPγS or AMPαS were added and the subsequent growth rate was determined.
Blocking the nitric oxide signaling pathway reverses the inhibition of Arabidopsis elongation by ATPγS. The inhibition of Arabidopsis pollen tube elongation was also mediated via the NO signaling pathway. Pollen tube growth rates were measured in 0.5% DMSO with and without 100 μM ATPγS.
Measurements of pollen tube elongation. Pollen was germinated as described above except 10 μL drops of pollen/PGM suspension were added to 60 μL of PGM+1% agar that had been deposited into a concavity slide. The pollen was allowed to germinate for 1-2 h, so that pollen tubes were clearly visible. Then 90 μL of PGM or PGM containing ATPγS, AMPαS, DMSO or ODQ was added and a photo was taken using a brightfield microscope at 40×. The coordinates of each photo were noted, so that the exact pollen tubes could be photographed 50-60 minutes later. Using Image J, the pollen tube lengths for individual pollen tubes were measured and a growth rate of μm/min was determined.

Where [4] appears, read: water-soluble agonist plus 50 μM ATPγS.
Where [5] appears, read: DMSO-soluble agonist plus 50 μM ATPγS, 0.1% DMSO.

As to `Nc1ncnc2c1ncn2[C@@H]1O[C@H](COP(=O)(O)OP(=O)(O)O)[C@@H](O)[C@H]1O` [ADP], the “change in [Ca2+]cyt” value in assay [Ca^2+]cyt is reported as “no change”. Further, the “concentration that could inhibit the straight growth of roots” value with roots was 3 mM. In addition, the “induction of membrane depolarization” value in assay [1] is recorded as “induced large depolarizations”. Also, in assay [1] (dose-response studies, read-out: half-maximal depolarization), the EC50 is around 10 µM. Also, the “abundance of mRNAs (MAP kinases, ERF2, ERF3, ERF4, ACS6)” value in assay [2] (application of 500 μM) is given as “induced an increased abundance”.

On to `Nc1ncnc2c1ncn2[C@@H]1O[C@H](COP(=O)(O)OP(O)(O)=S)[C@@H](O)[C@H]1O` [ADPβS], for which the “concentration that could inhibit the straight growth of roots” value in the assay with roots is reported as 0.3 mM. For the same compound, in the assay with Δ[Ca^2+]cyt, the “effect on Δ[Ca2+]cyt together with OGA” value is recorded as “similarly increased”. In addition, in the assay with Arabidopsis pollen, the “agonist of pollen responses” value is given as “active agonist”. On to `Nc1ncnc2c1ncn2[C@@H]1O[C@H](COP(O)(O)=S)[C@@H](O)[C@H]1O` [AMPS], for which the “effect on Δ[Ca2+]cyt together with OGA” value in the assay on Δ[Ca^2+]cyt was “significant inhibitory effect”. For the compound `Nc1ncnc2c1ncn2[C@@H]1O[C@H](COP(=O)(O)O)[C@@H](O)[C@H]1O` [AMP], the “induction of membrane depolarization” value in assay [1] is recorded as “did not”. For the same compound, in assay [3] (excised roots), the “effect on [Ca2+]cyt” value is “Neither AMP or phosphate induced any significant change”. For the same compound, the “effect on superoxide production” value with Arabidopsis leaves (equivalent concentrations delivered into the leaves) was “no significant effect”. In the case of `Nc1ccn([C@@H]2O[C@H](COP(=O)(O)OP(=O)(O)OP(=O)(O)O)[C@@H](O)[C@H]2O)c(=O)n1` [CTP], the “induction of membrane depolarization” value in assay [1] is “did not”. `CCCC(=O)Nc1nc2c(ncn2C2OC3COP(=O)([O-])OC3C2OC(=O)CCC)c(=O)[nH]1.[Na+]` (centres unmarked) [DibcGMP, N2,2-O-dibutyrylguanosine 3′:5′-cyclic monophospohate]: in the assay on Arabidopsis pollen (setting [4]), the “effect of added NO pathway agonist on pollen germination with ATPγS” value (“effect of added NO pathway agonist” below) was “caused 50 μM ATPγS to become inhibitory”.

For `Nc1nc2c(ncn2[C@@H]2O[C@H](COP(=O)(O)OP(=O)(O)OP(=O)(O)O)[C@@H](O)[C@H]2O)c(=O)[nH]1` [GTP], in assay [1], the “induction of membrane depolarization” value is listed as “induced large depolarizations”. As to `CC(C)Cn1c(=O)n(C)c(=O)c2[nH]cnc21` [IBMX, 3-isobutyl-1-methylxanthine], the “effect of added NO pathway agonist” value in the assay on Arabidopsis pollen (setting [5]) is “cause 50 μM ATPγS to inhibit pollen germination”.

On to `CCN(CC)[N+]([O-])=NO` [NONOate, 2-(N,N-Diethylamino)-diazenolate 2-oxide], for which the “effect of added NO pathway agonist” value in the assay on Arabidopsis pollen (setting [4]) was “caused 50 μM ATPγS to become inhibitory”. In the case of `O=c1onc2cnc3ccccc3n12` [ODQ, 1H-[1,2,4]Oxadiazolo[4,3,-a]quinoxalin-1-one], the “effect on pollen tube elongation alone” value in the assay on Arabidopsis pollen tubes (100 μM ODQ alone) is on record as “no effect”. In addition, the “reversal of inhibition of pollen tube elongation” value in the assay on Arabidopsis pollen tubes (100 μM ODQ with 100 μM ATPγS) is on record as “reversed the inhibition”. The “reversal of inhibition of pollen germination” value in the assay with Arabidopsis pollen (100 μM ODQ with 250 μM ATPγS) is “reverse the inhibition”. Consider `Cc1nc(N=Nc2ccc(S(=O)(=O)O)cc2S(=O)(=O)O)c(COP(=O)(O)O)c(C=O)c1O` [PPADS, pyridoxalphosphate-6-azophenyl-2′,4′-disulfonic acid], for which, in [3], the “suppression of the response of roots to eATP” value is “completely suppressed”. For the same compound, in the assay with Arabidopsis leaves (inhibitor treatment), the “blocking of ATP-induced superoxide production” value is given as “block the response”. For the compound `NCCCNCCCCN(CCCN)N(O)N=O` [SNAP, N-[4-[1-(3-Aminopropyl)-2-hydroxy-2-nitrosohydrazino]butyl]-1,3-propanediamine], in the assay on Arabidopsis pollen (setting [5]), the “effect of added NO pathway agonist” value was “cause 50 μM ATPγS to inhibit pollen germination”. Turning to `Cc1cn([C@H]2C[C@H](O)[C@@H](COP(=O)(O)OP(=O)(O)OP(=O)(O)O)O2)c(=O)[nH]c1=O` [TTP], the “induction of membrane depolarization” value in assay [1] is listed as “did not”. As to `O=c1ccn([C@@H]2O[C@H](COP(=O)(O)OP(=O)(O)OP(=O)(O)O)[C@@H](O)[C@H]2O)c(=O)[nH]1` [UTP], the “concentrations at which ineffective on [Ca2+]cyt” value in assay [3] (excised roots) is “below 100 μM”. For `[Gd]` [gadolinium], the “suppression of the response of roots to eATP” value in assay [3] is “completely suppressed”. Besides, the “blocking of nucleotide-induced gene expression changes” value in [2] (cells pre-treated) is “partially blocked”. With phosphate, in assay [1], the “induction of membrane depolarization” value is given as “no effect”. Also, the “effect on [Ca2+]cyt” value in assay [3] (excised roots) is “Neither AMP or phosphate induced any significant change”.
